Assay [1] has as its system oregano clonal line OM-1. It counts as cell-based. The settings on record: 30 days, ± SD. On the procedure:
(§1) Samples of Pseudomonas-treated and untreated control shoots from each line were assayed for rosmarinic acid content and proline content. Rosmarinic acid was extracted from 50 mg of fresh shoot tissue using 2 ml of 50% (v/v) methanol and incubating for 1 hour at 55° C. One ml of the methanol extract was diluted 1:18 and the absorbance of the diluted extract was measured at 333 nm in a Genesys spectrophotometer (Spectronic Instruments, Rochester, N.Y.). The concentration of RA in the extract was calculated using an extinction coefficient of ε333=19,000 τmol^−1cm^−1. Values for the concentration of RA for each treatment/clonal line shown in the Tables and Figures of this application are the average of at least 5 separate extracts. Total rosmarinic acid content was expressed as % g/g fresh weight (FW) of tissue.
(§2) Oregano lines 0-1, 0-4, and 0-5 of Examples 1 and 2 were tested again for cross-tolerance to A2C. Clonal lines OM-1, and OM-8 of Example 1 were also tested for cross-tolerance to A2C. Line OM-8 was previously shown to be sensitive to Pseudomonas strain F, whereas line OM-1 was tolerant of Pseudomonas strain F. Lines were maintained on MS medium containing BAP as described in Example 1.
(§3) Individual shoot tissue propagules of each clonal line were transferred to half strength hormone-free MS medium supplement with A2C. RA content and morphological abnormalities were determined as described in Example 1.

For assay [2], the system named is oregano clonal line OM-8. The format is cell-based. The settings on record: 30 days. On the procedure:
as §1, §2, §3

Assay [3] relates to Glucose-6-phosphate dehydrogenase (G-6-PDH). The format is cell-based, oregano. The settings on record: A2C 50 μM. How it is done: These enzymes are involved in synthesis of phenolic secondary metabolites (PAL) and in the pentose phosphate pathway (G-6-PDH).
One gm fresh weight of leaves were ground to a powder in liquid nitrogen, and homogenized in 0.1 M Tris-HCl buffer (pH 7.4) containing 1 mM phenylmethyl-sulfonyl fluoride (PMSF), 0.1% polyvinylpyrrolidone (PVP, to remove phenolics and polysaccharides) and 1 mM dithiothreitol (DTT). Extracts were centrifuged at 15,000×g for 20 minutes, and supernatants (5 ml) were partially purified through a PD 10 column (Pharmacia, Inc., NJ). Protein was eluted from the column using 5 ml of 0.1 M Tris-HCl, pH 8.5, which is close to the pH optimum of plant glucose-6-phosphate dehydrogenase (pH 8.0-8.2) and PAL (pH 8.8).
Glucose-6-phosphate dehydrogenase activity in the protein extract was measured spectrophotometrically by following the change in absorbance at 340 nm in the presence of saturating amounts of glucose-6-phosphate (2mM) and NADP (5 μM) in 0.1 M Tris-HCl, pH 8.0. One unit of glucose-6-phosphate dehydrogenase was defined as the amount of enzyme causing the reduction of 1 μmol of NADP^+ per minute. Specific activity was expressed as units per milligram of protein.

Assay [4] has as its system oregano clonal line OM-8. The experiment in a line: Morphological abnormalities / tolerance of cultured shoots, oregano line OM-8. The format is cell-based. The settings on record: line OM-8, 200 μM A2C. How it is done: Pseudomonas tolerance of Pseudomonas-treated shoots was determined by visual observation with a stereomicroscope (Olympus-SZ40, Tokyo, Japan) at a magnification of 34X. Cultured shoots were evaluated for morphological abnormalities, including malformation, necrosis, and chlorophyll deficiency. The response of individual tissue propagules to Pseudomonas contact was similar within each line, i.e., there was little or no variation among tissue propagules within each line.
as §3

Like-named read-outs stand apart in the source and are kept apart here.

Turning to `O=C(O)C1CCN1` (stereo not shown) [A2C, azetidine-2-carboxylic acid], the “RA Levels” value in assay [1] (line OM-1, A2C 100 μM) is listed as 7.1 ± 0.7 mg/g FW; in assay [1] (line OM-1, A2C 200 μM), 6.4 ± 1.2 mg/g FW; in assay [2] (line OM-8, A2C 100 μM, ± SD), 2.9 ± 0.3 mg/g FW; in assay [2] (line OM-8, A2C 200 μM), “inhibited”. Besides, the G-6-PDH specific activity is on record as 1.47 μmoles NADPH/min/mg protein in assay [3] (10 days of culture treatment) and 1.23 μmoles NADPH/min/mg protein in assay [3] (25 days of culture treatment). Also, in assay [4], the “survival of line in culture” value was “killed”.

Values taken from patent US20010012631A1, “Plant clonal lines and plants having elevated secondary metabolite levels” (University of Massachusetts Medical Center, a Massachusetts …, priority 1997, published 2001).
